Assay: Fluorescence excitation/emission of the styryl dye library compounds
Assay type: physicochemical
Settings: EX/EM peak no. 1

| SMILES | EM(nm) | EX(nm) |
| --- | --- | --- |
| C[n+]1ccc(C=Cc2ccc(Br)cc2)cc1.[I-] [Compound A5] | 540 | 375 nm |
| COc1cc(C=Cc2cc[n+](C)cc2)cc(OC)c1OC.[I-] [Compound A13] | 550 | 390 nm |
| COc1ccc(C=Cc2cc[n+](C)cc2)cc1O.[I-] [Compound A15] | 510 |  |
| C[n+]1ccc(C=Cc2ccc(O)cc2)cc1.[I-] [Compound A16] | 510 | 390-420 nm |
| CC(=O)Nc1ccc(C=Cc2cc[n+](C)cc2)cc1.[I-] [Compound A18] | 610 | 420 nm |
| C[n+]1ccc(C=Cc2ccc([N+](=O)[O-])cc2)cc1.[I-] [Compound A22] | 540 | 400 nm |
| C[n+]1ccc(C=Cc2ccccc2F)cc1.[I-] [Compound A29] | 560 | 400-420 nm |
| C[n+]1ccc(C=Cc2ccc(F)cc2)cc1.[I-] [Compound A30] | 590 | 420-440 nm |
| C[n+]1ccc(C=Cc2ccc3ccccc3c2)cc1.[I-] [Compound A33] | 600 | 360-420 nm |
| C[n+]1ccc(C=CC=Cc2ccccc2[N+](=O)[O-])cc1.[I-] [Compound A36] | 700 | 430 nm |
| CN(C)c1ccc(C=CC=Cc2cc[n+](C)cc2)cc1.[I-] [Compound A37] | 580 | 460-490 nm |
| COc1cc(OC)c(OC)cc1C=Cc1cc[n+](C)cc1.[I-] [Compound A38] | 540 | 410 nm |
| C[n+]1ccc(C=Cc2ccc3c(c2)OCO3)cc1.[I-] [Compound A39] | 540 | 430 nm |
| Brc1ccc(C=Cc2cc[n+](C34CC5CC(CC(C5)C3)C4)cc2)cc1.[Br-] [Compound B5] | 570 | 385 nm |
| COc1ccccc1C=Cc1cc[n+](C23CC4CC(CC(C4)C2)C3)cc1.[Br-] [Compound B9] | 500 | 390 nm |
| C(=Cc1ccc(OCc2ccccc2)c(OCc2ccccc2)c1)c1cc[n+](C23CC4CC(CC(C4)C2)C3)cc1.[Br-] [Compound B12] | 530 | 340-444 nm |
| COc1ccc(C=Cc2cc[n+](C34CC5CC(CC(C5)C3)C4)cc2)c2ccccc12.[Br-] [Compound B14] | 550 | 360-450 nm |
| CC(=O)Nc1ccc(C=Cc2cc[n+](C34CC5CC(CC(C5)C3)C4)cc2)cc1.[Br-] [Compound B18] | 580 | 420 nm |
| CN(C)c1ccc(C=Cc2cc[n+](C34CC5CC(CC(C5)C3)C4)cc2)cc1.[Br-] [Compound B19] | 610 | 380-540 nm |
| Fc1ccccc1C=Cc1cc[n+](C23CC4CC(CC(C4)C2)C3)cc1.[Br-] [Compound B29] | 560 | 400-420 nm |
| Fc1ccc(C=Cc2cc[n+](C34CC5CC(CC(C5)C3)C4)cc2)cc1.[Br-] [Compound B30] | 590 |  |
| C(=Cc1c2ccccc2cc2ccccc12)c1cc[n+](C23CC4CC(CC(C4)C2)C3)cc1.[Br-] [Compound B34] | 610 | 460 nm |
| COc1cc(C=Cc2cccc[n+]2C)cc(OC)c1OC.[I-] [Compound C13] | 540 | 380 nm |
| COc1ccc(C=Cc2cccc[n+]2C)c2ccccc12.[I-] [Compound C14] | 530 | 390 nm |
| COc1ccc(C=Cc2cccc[n+]2C)cc1O.[I-] [Compound C15] | 500 | 390 nm |

| SMILES | EM(nm) | EX(nm) |
| --- | --- | --- |
| CN(C)c1ccc(C=Cc2cccc[n+]2C)c2ccccc12.[I-] [Compound C27] | 620 | 450 nm |
| C[n+]1ccccc1C=Cc1cccc2ccccc12.[I-] [Compound C32] | 550 | 390 nm |
| CN(C)c1ccc(C=CC=Cc2cccc[n+]2C)cc1.[I-] [Compound C37] | 680 | 520 nm |
| COc1cc(OC)c(OC)cc1C=Cc1cccc[n+]1C.[I-] [Compound C38] | 580 | 420 nm |
| C[n+]1ccccc1C=Cc1ccc2c(c1)OCO2.[I-] [Compound C39] | 520 | 340 nm |
| C[n+]1ccccc1C=Cc1ccccn1.[I-] [Compound C40] | 610 | 390 nm |
| CCc1ccc(C=Cc2ccc(OCc3ccccc3)c(OCc3ccccc3)c2)[n+](C)c1.[I-] [Compound E12] | 510 | 400 nm |
| CCc1ccc(C=Cc2cc(OC)c(OC)c(OC)c2)[n+](C)c1.[I-] [Compound E13] | 540 | 380 nm |
| CCc1ccc(/C=C/c2c[nH]c3ccccc23)[n+](C)c1.[I-] [Compound E24] | 510 | 430 nm |
| CCc1ccc(/C=C/c2ccc(N(C)C)c3ccccc23)[n+](C)c1.[I-] [Compound E27] | 620 | 430 nm |
| CCc1ccc(C=Cc2cccc3ccccc23)[n+](C)c1.[I-] [Compound E32] | 560 | 420 nm |
| CCc1ccc(C=Cc2cc(OC)c(OC)cc2OC)[n+](C)c1.[I-] [Compound E38] | 560 | 430 nm |
| CCc1ccc(/C=C/c2ccc3c(c2)OCO3)[n+](C)c1.[I-] [Compound E39] | 500 | 390-420 (broad) nm |
| CCc1ccc(C=Cc2ccccn2)[n+](C)c1.[I-] [Compound E40] | 610 | 390 nm |
| COc1ccccc1C=Cc1cc[n+](C)c(Br)c1.[I-] [Compound F9] | 520 | 400 nm |
| COc1ccc(/C=C/c2cc[n+](C)c(Br)c2)cc1.[I-] [Compound F10] | 520 | 460 nm |
| C[n+]1ccc(C=Cc2ccc(O)cc2)cc1Br.[I-] [Compound F16] | 510 | 410 nm |
| CN(C)c1ccc(C=Cc2cc[n+](C)c(Br)c2)cc1.[I-] [Compound F19] | 610 | 440(broad) nm |
| CN(C)c1ccc(C=Cc2cc[n+](C)c(Br)c2)c2ccccc12.[I-] [Compound F27] | 640 | 460 nm |
| C[n+]1ccc(C=Cc2cccc3ccccc23)cc1Br.[I-] [Compound F32] | 530 | 410 nm |
| COc1cc(OC)c(OC)cc1C=Cc1cc[n+](C)c(Br)c1.[I-] [Compound F38] | 540 | 460 nm |
| C[n+]1ccc(/C=C/c2ccc3c(c2)OCO3)cc1Br.[I-] [Compound F39] | 540 | 400-420 nm |
| C[n+]1ccc(C=Cc2ccccn2)cc1Br.[I-] [Compound F40] | 640 | 540 nm |
| COc1ccc(C=Cc2cc[n+](C)c3ccccc23)cc1OC.[I-] [Compound G11] | 600 | 420-480 nm |
| COc1cc(C=Cc2cc[n+](C)c3ccccc23)cc(OC)c1OC.[I-] [Compound G13] | 620 | 420 nm |

From patent US20050054006A1, “Combinatorial fluorescent library based on the styryl scaffold” (New York University, priority 2003, published 2005)
